In publication PMC9283466, “In silico identification of two peptides with antibacterial activity against multidrug-resistant Staphylococcus aureus” (NPJ Biofilms and Microbiomes, 2022):
≈ marks a conversion by molar mass, not a printed value. Peptide text beside a SMILES is read from it.

How the values were obtained:
S. aureus ATCC 33591 = assay: microbe, parasite or virus in culture; assay type: cell-based, Staphylococcus aureus; settings: Staphylococcus aureus; S. aureus ATCC 33591; MRSA; read-out: MIC
Method: (§1) To determine the antimicrobial activity of the new antimicrobial peptides, HG2 and HG4, their minimum inhibitory concentrations (MICs) were determined by broth microdilution method[51] in cation adjusted Mueller Hinton broth (MHB) following the International Organisation for Standardisation (ISO) 20776-1 standard for MIC testing using a final bacterial inoculum of 5 × 10^5 CFU/ml[52]. […] The peptides dissolved in sterile distilled water were added to bacteria culture and incubated overnight at appropriate conditions. The MICs of the peptides and comparator antibiotics were recorded after 18–24 h. The minimum bactericidal concentrations (MBCs) were also determined and were taken as the lowest concentration of the antimicrobial that prevented the growth of bacterial cells after the subculture of cells (from MIC treatment) onto antibiotic-free media.

S. aureus EMRSA-15 = assay: microbe, parasite or virus in culture; assay type: cell-based, Staphylococcus aureus; settings: Staphylococcus aureus; S. aureus EMRSA-15; resistances MRSA, Cip; read-out: MIC
Method: as §1

[1] = test system: S. aureus USA300 BAA-1717; assay: microbe, parasite or virus in culture; assay type: cell-based, Staphylococcus aureus; settings: Staphylococcus aureus, BAA-1717 / MRSA / USA300; S. aureus USA300 BAA-1717; MRSA; read-out: MIC
Method: as §1

P. aeruginosa = assay: microbe, parasite or virus in culture; assay type: cell-based, Pseudomonas aeruginosa
Method: as §1

Sal. typhimurium = assay: microbe, parasite or virus in culture; assay type: cell-based, Salmonella enterica serovar Typhimurium
Method: as §1

E. coli = assay: microbe, parasite or virus in culture; assay type: cell-based, Escherichia coli
Method: as §1

EMRA-15 = assay: microbe, parasite or virus in culture; assay type: cell-based, Staphylococcus aureus
Method: as §1

S. aureus = assay: microbe, parasite or virus in culture; assay type: cell-based, Staphylococcus aureus
Method: as §1

Ent. faecalis = assay: microbe, parasite or virus in culture; assay type: cell-based, Enterococcus faecalis
Method: as §1

List. monocytogenes = assay: microbe, parasite or virus in culture; assay type: cell-based, Listeria monocytogenes
Method: as §1

MRSA USA300 cells [2] = assay: Time-kill kinetics; assay type: cell-based, Staphylococcus aureus; settings: 3x MIC, comparator antibiotics, time not stated
Method: The bactericidal activity of HG2, HG4 and comparator antimicrobial compounds was assessed using exponential-phase cultures[14] of MRSA USA300 grown in MHB (1 × 10^6-8 CFU/ml). […] Samples were taken at different time points, serially diluted and inoculated onto MH agar plates using the spread plate technique. After overnight incubation, the colony-forming units per millilitre of cell culture (CFU/ml) was calculated. Experiments were performed in quadruplicates.

MRSA USA300 cells [3] = assay: Serial passage / resistance assay; assay type: cell-based, Staphylococcus aureus; settings: sub-MIC exposure over 20 days, MRSA USA300
Method: In vitro evaluation of the potential for MRSA USA3000 cells to develop resistance to HG2 and HG4 was performed as follows. […] Cultures from the highest concentration that supported growth were diluted 1: 1000 in MHB and used to provide the inoculum for the next passage day. This process was performed for a total duration of 20 days. Any putative mutants recovered were isolated via streak dilution for three generations on MHA, prior to further characterisation.

Row | SMILES | MIC (S. aureus ATCC 33591) | MIC (S. aureus EMRSA-15) | MIC [1] | Minimum inhibitory Concentrations MICs (P. aeruginosa) | Minimum inhibitory Concentrations MICs (Sal. typhimurium) | Minimum inhibitory Concentrations MICs (E. coli) | Minimum inhibitory Concentrations MICs (EMRA-15) | Minimum inhibitory Concentrations MICs (S. aureus) | Minimum inhibitory Concentrations MICs (Ent. faecalis) | Minimum inhibitory Concentrations MICs (List. monocytogenes) | reduction in viable cells (time-kill) (MRSA USA300 cells [2]) | fold increase in MIC during serial passage (MRSA USA300 cells [3])
1 | C[C@H]1COc2c(N3CCN(C)CC3)c(F)cc3c(=O)c(C(=O)O)cn1c23 [Levof, levofloxacin] | 0.015 µg/mL (≈ 0.0415 µM) | 1 µg/mL (≈ 2.77 µM) | 0.0075 µg/mL (≈ 0.0208 µM) | – | – | – | – | – | – | – | – | –
2 | CC[C@H](C)[C@H](NC(=O)[C@H](CC(C)C)NC(=O)[C@H](CC(C)C)NC(=O)[C@H](CC(C)C)NC(=O)[C@H](CCCCN)NC(=O)[C@H](CCCCN)NC(=O)[C@@H](N)CCSC)C(=O)N[C@@H](CC(C)C)C(=O)N[C@@H](Cc1ccccc1)C(=O)N[C@@H](CS)C(=O)N[C@@H](CC(C)C)C(=O)N[C@@H](C)C(=O)N[C@@H](CC(C)C)C(=O)N[C@@H](C)C(=O)N[C@@H](CC(C)C)C(=O)N[C@@H](C)C(=O)NCC(=O)N[C@@H](CS)C(=O)N[C@@H](CCCCN)C(=O)N[C@@H](CCCCN)C(=O)N[C@@H](C)C(=O)N1CCC[C@H]1C(N)=O [Linear HG2] (H-MKKLLLILFCLALALAGCKKAP-NH2; N-terminus and C-terminus assumed) | – | – | – | > 1024 µg/mL | > 1024 µg/mL | > 1024 µg/mL | > 1024 µg/mL | > 1024 µg/mL | > 1024 µg/mL | > 1024 µg/mL | – | –
3 | C/C(=C\C(=O)OCCCCCCCCC(=O)O)C[C@@H]1OC[C@H](C[C@@H]2O[C@H]2[C@@H](C)[C@H](C)O)[C@@H](O)[C@H]1O [Mupirocin, reference compound] | – | – | 0.12 µg/mL (≈ 0.24 µM) | – | – | – | – | – | – | – | ≥ 2 log10 CFU/ml | 32 fold
